# Target: T1, CRTH2 (Homo sapiens, UniProt Q9Y5Y4)
# T1 construct: expressed in transfected cells; host or cells: CHO cells
# T1 sequence (Q9Y5Y4 1-395): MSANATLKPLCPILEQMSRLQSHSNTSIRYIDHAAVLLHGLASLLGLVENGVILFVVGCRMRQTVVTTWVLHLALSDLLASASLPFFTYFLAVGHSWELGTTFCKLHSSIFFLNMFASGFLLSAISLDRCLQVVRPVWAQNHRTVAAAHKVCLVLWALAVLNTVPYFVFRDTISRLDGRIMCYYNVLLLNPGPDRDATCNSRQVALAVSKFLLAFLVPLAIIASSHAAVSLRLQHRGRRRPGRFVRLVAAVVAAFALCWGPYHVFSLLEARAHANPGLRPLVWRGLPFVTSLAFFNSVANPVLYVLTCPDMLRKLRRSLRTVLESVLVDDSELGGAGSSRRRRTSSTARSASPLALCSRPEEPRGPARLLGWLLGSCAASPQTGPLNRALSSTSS
# Experiment: FRET based competitive immunoassay (cAMP) in CRTH2 expressing CHO cells
# Type: cell-based
# Conditions: CRTH2 expressing CHO cells incubated with forskolin and PGD2; Eu3+ cryptate-labeled anti-cAMP and d2-labeled cAMP
# Procedure: FRET Assay: To evaluate potency compounds were tested in a FRET based competitive immunoassay in which CRTH2 expressing CHO cells were incubated in the presence of forskolin and PGD2 along with Eu3+ cryptate-labeled anti-cAMP and d2-labeled cAMP.
row,SMILES,IC50
1,"Cc1c(Cc2ccc(=O)n(Cc3cccc(F)c3F)c2)c2cc(Cl)ccc2n1CC(=O)O [Example 43, 2-(5-Chloro-3-((1-(2,3-difluorobenzyl)-6-oxo-1,6-dihydropyridin-3-yl)-methyl)-2-methyl-1H-indol-1-yl)acetic acid]",9 nM
2,"Cc1c(-c2ccc(=O)n(CC3CC3)n2)c2ccccc2n1CC(=O)O [Example 184, 2-(3-(1-(cyclopropylmethyl)-6-oxo-1,6-dihydropyridazin-3-yl)-2-methyl-1H-indol-1-yl)acetic acid]",62 nM
3,"Cc1c(-c2ccc(=O)n(Cc3ccc(F)cc3)c2)c2cc(F)ccc2n1CC(=O)O [Example 267, 2-(5-fluoro-3-(1-(4-fluorobenzyl)-6-oxo-1,6-dihydropyridin-3-yl)-2-methyl-1H-indol-1-yl)acetic acid]",6 nM
4,"Cc1c(-c2nn(C3CCCC3)c(=O)c3ccccc23)c2ccccc2n1CC(=O)O [Example 179, 2-(3-(3-cyclopentyl-4-oxo-3,4-dihydrophthalazin-1-yl)-2-methyl-1H-indol-1-yl)-acetic acid]",> 1000 nM
5,"Cc1c(Cc2cn(Cc3ccccc3)c(=O)c3ccccc23)c2cc(F)ccc2n1CC(=O)O [Example 85, 2-(3-((2-benzyl-1-oxo-1,2-dihydroisoquinolin-4-yl)methyl)-5-fluoro-2-methyl-1H-indol-1-yl)acetic acid]",62 nM
6,"Cc1ccc2c(c1)c(-c1ccc(=O)n(CC(F)(F)F)c1)c(C)n2CC(=O)O [Example 304, 2-(2,5-dimethyl-3-(6-oxo-1-(2,2,2-trifluoroethyl)-1,6-dihydropyridin-3-yl)-1H-indol-1-yl)acetic acid]",1180 nM
7,"Cc1c(-c2ccc(=O)n(Cc3c(F)cccc3F)c2)c2cc(F)ccc2n1CC(=O)O [Example 268, 2-(3-(1-(2,6-difluorobenzyl)-6-oxo-1,6-dihydropyridin-3-yl)-5-fluoro-2-methyl-1H-indol-1-yl)acetic acid]",7 nM
8,"Cc1c(-c2nn(CCc3ccccc3)c(=O)c3ccccc23)c2ccccc2n1CC(=O)O [Example 225, 2-(2-methyl-3-(4-oxo-3-phenethyl-3,4-dihydrophthalazin-1-yl)-1H-indol-1-yl)acetic acid]",27 nM
9,"Cc1c(-c2nn(Cc3ccccc3)c(=O)c3ccccc23)c2cc(F)cc(F)c2n1CC(=O)O [Example 244, 2-(3-(3-benzyl-4-oxo-3,4-dihydrophthalazin-1-yl)-5,7-difluoro-2-methyl-1H-indol-1-yl)acetic acid]",60 nM
10,"Cc1c(-c2nn(Cc3ccc(S(C)(=O)=O)cc3)c(=O)c3ccccc23)c2cc(Cl)ccc2n1CC(=O)O [Example 332, (5-chloro-2-methyl-3-{3-[4-(methylsulfonyl)benzyl]-4-oxo-3,4-dihydro-phthalazin-1-yl}-1H-indol-1-yl)acetic acid]",26 nM
11,"Cc1c(-c2nn(CC(F)(F)F)c(=O)c3ccccc23)c2cc(Cl)ccc2n1CC(=O)O [Example 109, 2-(5-chloro-2-methyl-3-(4-oxo-3-(2,2,2-trifluoroethyl)-3,4-dihydro-phthalazin-1-yl)-1H-indol-1-yl)acetic acid]",42 nM
12,"Cc1c(-c2nn(Cc3ccc(Cl)cc3)c(=O)c3ccccc23)c2cc(F)ccc2n1CC(=O)O [Example 4, 2-(3-(3-(4-Chlorobenzyl)-4-oxo-3,4-dihydropthalazin-1-yl)-5-fluoro-2-methyl-1H-indol-1-yl)acetic acid]",9 nM
13,"Cc1c(-c2ccc(=O)n(Cc3cc(F)c(F)cc3F)n2)c2cc(Cl)ccc2n1CC(=O)O [Example 69, 2-(5-chloro-2-methyl-3-(6-oxo-1-(2,4,5-trifluorobenzyl)-1,6-dihydropyridazin-3-yl)-1H-indol-1-yl)acetic acid]",7 nM
14,"Cc1c(-c2ccc(=O)n(Cc3ccncc3)c2)c2cc(F)ccc2n1CC(=O)O [Example 308, 2-(5-fluoro-2-methyl-3-(6-oxo-1-(pyridin-4-ylmethyl)-1,6-dihydropyridin-3-yl)-1H-indol-1-yl)acetic acid]",35 nM
15,Cc1c(Cc2ccc(=O)n(Cc3cc(F)c(F)cc3F)c2)c2ccccc2n1CC(=O)O [Example 24],28 nM
